Source: patent publication US7148232B2, “Oxazolo, thiazolo and selenazolo [4,5-c]-quinolin-4-amines and analogs thereof” (3M Innovative Properties Company, priority 1998, dated 2006)
Several values for one entry are separate records, joined by “and”; a condition that tells them apart may be missing. Identical values can stand only once.

Columns and labels:
interferon (α) = assay: Interferon (α) induction in human cells (in vitro human blood cell system, interferon by bioassay); type: cell-based; conditions: human PBM's, 48 hours
Protocol: An in vitro human blood cell system was used to assess interferon induction by compounds of the invention. Activity is based on the measurement of interferon secreted into culture media. Interferon is measured by bioassay.
Whole blood is collected by venipuncture into EDTA vacutainer tubes. Peripheral blood mononuclear cells (PBM's) are separated from whole blood by using either LeucoPREP™ Brand Cell Separation Tubes (available from Becton Dickinson) or Ficoll-Paque® solution (available from Pharmacia LKB Biotechnology Inc, Piscataway, N.J.). […] 200 μL portions of PBM suspension are added to 96 well (flat bottom) sterile tissue culture plates (Becton Dickinson Labware, Lincoln Park, N.J.).
The compounds are solubilized in ethanol, dimethyl sulfoxide or tissue culture water then diluted with tissue culture water, 0.01N sodium hydroxide or 0.01N hydrochloric acid (The choice of solvent will depend on the chemical characteristics of the compound being tested.). Ethanol or DMSO concentration should not exceed a final concentration of 1% for addition to the culture wells. Compounds are initially tested in a concentration range of from about 0.1 μg/mL to about 5 μg/mL. Compounds which show induction at a concentration of 0.5 μg/mL are then tested in a wider concentration range.
The solution of test compound is added in a volume (less than or equal to 50 μL) to the wells containing 200 μL of diluted whole blood or of PBM's in media. Solvent and/or media is added to control wells (wells with no test compound) and as needed to adjust the final volume of each well to 250 μL. The plates are covered with plastic lids, vortexed gently and then incubated for 48 hours at 37° C. with a 5% carbon dioxide atmosphere.
Following incubation, the plates are covered with parafilm and then centrifuged at 1000 rpm for 10 to 15 minutes at 4° C. in a Damon IEC Model CRU-5000 centrifuge. Media (about 200 μL) is removed from 4 to 8 wells and pooled into 2 mL sterile freezing vials. Samples are maintained at −70° C. until analysis.
Interferon is determined by bioassay using A549 human lung carcinoma cells challenged with encephalomyocarditis. The details of the bioassay method have been described by G. L. Brennan and L. H. Kronenberg in “Automated Bioassay of Interferons in Micro-test Plates”, Biotechniques, June/Jul. […] The incubated cells are infected with an inoculum of encephalomyocarditis virus. The infected cells are incubated for an additional period at 37° C. before quantifying for viral cytopathic effect. The viral cytopathic effect is quantified by staining followed by spectrophotometric absorbance measurements. Results are expressed as alpha reference units/mL based on the value obtained for NIH HU IF-L standard.
Compounds of the invention were tested for their ability to induce interferon in human cells using the test method described above.

Structure (SMILES)	melting point	Interferon (α) Induction in Human Cells (interferon (α); Dose Concentration 0.01 μg/mL)	Interferon (α) Induction in Human Cells (interferon (α); Dose Concentration 0.05 μg/mL)	Interferon (α) Induction in Human Cells (interferon (α); Dose Concentration 0.10 μg/mL)	Interferon (α) Induction in Human Cells (interferon (α); Dose Concentration 0.50 μg/mL)	Interferon (α) Induction in Human Cells (interferon (α); Dose Concentration 1.0 μg/mL)	Interferon (α) Induction in Human Cells (interferon (α); Dose Concentration 5.0 μg/mL)	Interferon (α) Induction in Human Cells (interferon (α); Dose Concentration 10.0 μg/mL)	Interferon (α) Induction in Human Cells (interferon (α); Dose Concentration 25.0 μg/mL)	Interferon (α) Induction in Human Cells (interferon (α); Dose Concentration 50.0 μg/mL)
CCOCc1nc2c(N)nc3ccccc3c2s1 [Example 28, 2-(Ethoxymethyl)thiazolo[4,5-c]quinoline-4-amine]	149 to 151 °C	−	−	−	+	+	+			
CCCCc1nc2c(N)nc3cc(C)ccc3c2o1 [Example 46, 2-Butyl-7-methyloxazolo[4,5-c]quinolin-4-amine]	187 to 188 °C	−	+	+	+	+	+			
Nc1nc2ccccc2c2sc(/C=C/c3ccccc3)nc12 [Example 22, 2-(2-Phenyl-1-ethenyl)thiazolo[4,5-c]quinolin-4-amine]	239 to 241 °C	−	−	−	−	−	−	+	+	+
CCCCCc1nc2c(N)nc3ccccc3c2s1 [Example 16, 2-Pentylthiazolo[4,5-c]quinolin-4-amine]	119 to 121 °C	−	−	−	−	+	+			
CCCc1nc2c(N)nc3cc(F)ccc3c2o1 [Example 48, 7-Fluoro-2-propyloxazolo[4,5-c]quinolin-4-amine]	184 to 187 °C	−	−	−	+	+	+			
CCc1nc2c(N)nc3ccccc3c2s1 [Example 8, 2-Ethylthiazolo[4,5-c]quinolin-4-amine]	170 to 172 °C and 169 to 171 °C	−	−	−	+	+	+			
CC(C)(Cc1nc2c(N)nc3ccccc3c2s1)OC(N)=O [Example 26, 2-(4-Aminothiazolo[4,5-c]quinolin-2-yl)-1,1-dimethylethyl Carbamate]	222 to 223 °C	−	−	−	−	−	+	+	+	+
CCCc1nc2c(N)nc3ccccc3c2o1 [Example 43, 2-Propyloxazolo[4,5-c]quinolin-4-amine]	159 to 160 °C	−	+	+	+	+	+			
CC(C)Cc1nc2c(N)nc3ccccc3c2s1 [Example 32, 2-(2-Methylpropyl)thiazolo[4,5-c]quinolin-4-amine]	123 to 125 °C	−	−	±	+	+	+			
CCCc1nc2c(N)nc3ccc(C)cc3c2s1 [Example 36, 8-Methyl-2-propylthiazolo[4,5-c]quinolin-4-amine]	147 to 149 °C	−	−	−	−	+	+			
Cc1nc2c(N)nc3ccccc3c2s1 [Example 2, 2-Methylthiazolo[4,5-c]quinolin-4-amine]	184 to 187 °C and 184 to 186 °C	−	−	±	+	+	+			
CCCc1nc2c(N)nc3cc(F)ccc3c2s1 [Example 49, 7-Fluoro-2-propylthiazolo[4,5-c]quinolin-4-amine]	192.5 to 193.5 °C	−	−	−	+	+	+			
[O-][n+]1cc2nc(Cc3ccccc3)sc2c2ccccc21 [Example 33, 2-Benzylthiazolo[4,5-c]quinoline-5N-oxide]	185 to 186 °C									
CCc1nc2c[n+]([O-])c3ccccc3c2s1 [Example 7, 2-Ethylthiazolo[4,5-c]quinoline-5N-oxide]	128 °C									
Cl.Nc1nc2ccccc2c2scnc12.O (hydrate or solvate) [Example 5, Thiazolo[4,5-c]quinolin-4-amine Hydrochloride Hydrate]	284 to 285 °C									
CCCCCc1nc2c[n+]([O-])c3ccccc3c2s1 [Example 15, 2-Pentylthiazolo[4,5-c]quinoline-5N-oxide]	142 to 144 °C									
CCCCc1nc2c[n+]([O-])c3cccnc3c2s1 [Example 57, 2-Butylthiazolo[4,5-c][1,5]naphthyridine-5N-oxide]	65 to 69 °C									
CS(=O)(=O)c1nc2c[n+]([O-])c3ccccc3c2s1 [Example 51, 2-(Methylsulfonyl)thiazolo[4,5-c]quinolin-5N-oxide]	245 to 247 °C									
CCCCc1nc2c[n+]([O-])c3ccccc3c2o1 [Example 40, 2-Butyloxazolo[4,5-c]quinoline-5N-oxide]	120 to 121 °C									
